Experimental data published in patent US4444776A, “Dipyrido (4,3-B) (3,4-F) indoles, process for obtaining them, therapeutical use and pharmaceutical compositions” (priority 1977, dated 1984).

Tests used:
Friend leukemia virus = test: Test 2: viro-induced Friend leukemia (Table II); format: in vivo, DBA2 mice; conditions: for mean spleen weight (range): 21 days after virus; for ILS % / Weight of the spleens on the 21st day / Mean survival time (first-last death): VFA 1/250, 5 hrs after the virus
Excerpt: The protective power of the compounds according to the invention have also been sought on the Friend viro-induced leukemia (J. Exp. Med. 1957-105-307-318) and it has been determined that the compounds according to the invention are antiviral and antitumoral agents in lower animals.
Test 2. Viro-induced Leukemia: Friend leukemia
The protective power of the compounds according to the invention was sought on Friend leukemia, inoculated into DBA2 mice aged from 5-6 weeks. The viral inoculum was produced from a homogenate of leukemic spleen (p/volume) diluted to 1/250 in isotonic phosphate buffer without Ca^++ nor Mg^++ (PBS), corresponding to 100 SD 50 (i.e. to the dose of virus which induces a splenomegaly in 50% of the inoculated mice).
The virus was injected by the IP route and in a volume of 0.2 ml. The product to be tested was injected 5 hours after the virus or 1 day after the virus at the dose indicated in a volume of 0.1 ml (IP route). Each group of twenty control mice received the virus and a placebo or the product to be tested, 10 mice were sacrified on the 21st day, and their spleen removed and weighed. The mice were considered as leukemic when the weight of their spleen exceed 200 mg. For the 10 mice, the life span of the animals was determined.

[1] = test system: DNA synthesis in HS5 cells; test: Test 6: action on DNA synthesis (14C methyl-thymidine incorporation); format: cell-based, hamster; conditions: in the hours following its addition
Experimental: Test 6: Action on the macromolecular syntheses
The action of the compounds according to the invention was studied by the incorporation of precursors marked by radioactive isotopes:
^14 C methyl-thymidine for studying the DNA synthesis
These precursors were given for a period of 30 minutes at varying times after the addition of the product to be tested.
The incorporation is measured after lysis of the cells for 1% of sodium dodecylsulfate and precipitation by 5% of trichloroacetic acid. The […] precipitate was collected on glass fibre Whatman GF/A filters. The filters were dried and counted in a liquid scintillation spectrometer.

L1210 leukemia [2] = test: Test 15: L1210 leukemia, compound of formula 8 (Table XI); format: in vivo, mouse; conditions: for ILS % / MST / Range of death: 50 mg/kg
Experimental: The proceeding of test 1 was repeated with the compound of formula 8 obtained according to example 1, i.e. 5,11-dimethyl-dipyrido[4,3-b][3,4-f]indole. In this test, the compound of formula 8 was injected four days after the inoculation of the cells (50 mg/kg). The results are shown in table XI wherein the results obtained with the same compound injected one day after the cell inoculation are also reported (see experiment no. 2 in table I).

new-born mice = test: Test 4: toxicity on new-born mice, IP; format: in vivo, mouse; conditions: new-born mice
Excerpt: Test 4: Investigation of the toxicity
The toxic dose has been sought, on adult ([…]×DBA/2) Fl mice and on new-born mice, of the compounds of the invention by injection by the IP route. The results obtained are given hereinafter:
2-On new-born mice (IP route)

L 1210 leukemia [3] = test: Test 11: L 1210 leukemic mice, examples 7 and 8 (Table VIII); format: in vivo, mouse; parameters: MTS: unit not given beside the values; conditions: J+1
Experimental: This test was carried out with 10^3, 10^4 and 10^5 leukemic cells on day J. This test was also carried out with the compound of example 7, i.e. 1-[(γ-diethylaminopropyl)amino]-5-methyl-dipyrido [4,3-b][3,4-f] indole (compound 21).

L 1210 leukemia [4] = test: Test 12: single vs fractioned dose, L 1210 leukemic mice (Table IX); format: in vivo, mouse; parameters: MTS: unit not given beside the values
L1210 leukemia [5] = test: Test 17: length of substituting chain, L1210 (Table XIII); format: in vivo, mouse
Experimental: Test 17: Relationship between the length of the substituting chain and the activity.
However compound 21 is less toxic (50 mg/kg for compound 21 and 25 mg/kg for compound 23), it has a higher ILS% than compound 23 and 1 mouse survived up to 60 days.

mice = test: Test 21: toxicity after intraperitoneal injection
Experimental: All drugs were dissolved in aqueous solutions adjusted at pH 5 with acetic acid and inoculated to the mice under a volume of 0.1 ml I.P. after dilution in Mac Coy's medium.
The toxicity of the drugs after intraperitoneal injection was estimated from the mortality rate up to the 30th day.

leukemic cells = test: Test 20: combination of compound 21 with other drugs (Table XV); conditions: 10^5 cells, BD 40 20 mg/kg day +4, Endoxan 100 mg/kg day +3
Experimental: A priming dose of endoxan (100 mg/kg) was given 3 days after 10^5 leukemic cells (20 mice).

[6] = 10^4 cells, 0.2 mg/mouse single at J+3
[7] = 10^4 cells, 4 × 0.05 mg/mouse at J+3+4+5+6
[8] = 10^5 cells, 0.2 mg/mouse single at J+3
[9] = 10^5 cells, 4 × 0.05 mg/mouse at J+3+4+5+6

SMILES: Cc1c2ccncc2c(C)c2c1[nH]c1ccncc12 [Example 1, 5,11-dimethyl dipyrido [4,3-b][3,4-f] indole]
- mean spleen weight (range) (Friend leukemia virus; 25 mg/kg): 1,803 (718-2,635) mg
- mean spleen weight (range) (Friend leukemia virus; 50 mg/kg): 960 (373-1,230) mg
- ILS % (Friend leukemia virus; 0.1 mg): 59.5%
- Weight of the spleens on the 21st day (Friend leukemia virus; 0.1 mg): 2013 mg
- Mean survival time (first-last death) (Friend leukemia virus; 0.1 mg, IP): 47.6 (26-78) Days
- ILS % (Friend leukemia virus; 0.5 mg): 14.6%
- Mean survival time (first-last death) (Friend leukemia virus; 0.5 mg): 34.2 (22.54) Days
- Weight of the spleens on the 21st day (Friend leukemia virus; 0.5 mg): 1803 mg
- ILS % (Friend leukemia virus; 1 mg): 39.7%
- Mean survival time (first-last death) (Friend leukemia virus; 1 mg): 41.7 (14-81) Days
- Weight of the spleens on the 21st day (Friend leukemia virus; 1 mg): 959,6 mg
- DNA and RNA syntheses [1]: reduces very rapidly
- ILS % (L1210 leukemia [2]; 10^4 cells, day +1): 11.8%
- MST (L1210 leukemia [2]; 10^4 cells, day +1): 12.3 days
- Range of death (L1210 leukemia [2]; 10^4 cells, day +1): 11-14
- ILS % (L1210 leukemia [2]; 10^4 cells, day +4): 14.7%
- MST (L1210 leukemia [2]; 10^4 cells, day +4): 12 days
- Range of death (L1210 leukemia [2]; 10^4 cells, day +4): 10-16
- ILS % (L1210 leukemia [2]; 10^5 cells, day +1): 38.1%
- MST (L1210 leukemia [2]; 10^5 cells, day +1): 12.85 days
- Range of death (L1210 leukemia [2]; 10^5 cells, day +1): 10-13
- ILS % (L1210 leukemia [2]; 10^5 cells, day +4): 15.7%
- MST (L1210 leukemia [2]; 10^5 cells, day +4): 10.3 days
- Range of death (L1210 leukemia [2]; 10^5 cells, day +4): 10-11
- ILS % (L1210 leukemia [2]; 10^6 cells, day +1): 47.3%
- MST (L1210 leukemia [2]; 10^6 cells, day +1): 11.5 days
- Range of death (L1210 leukemia [2]; 10^6 cells, day +1): 9-15
- ILS % (L1210 leukemia [2]; 10^6 cells, day +4): 34.3%
- MST (L1210 leukemia [2]; 10^6 cells, day +4): 9 days
- Range of death (L1210 leukemia [2]; 10^6 cells, day +4): 8-13
- increased life span (ILS %), early vs late administration (L1210 leukemia [2]; product given earlier after the cells inoculum): higher when the product was given earlier

SMILES: CCN(CC)CCCNc1nccc2c(C)c3[nH]c4ccncc4c3cc12 [Example 7, 1-(γ-diethylaminopropyl)amino-5-methyl-dipyrido-[4,3-b][3,4-f] indole]
- toxic dose (new-born mice): higher than 2.5 mg/kg of mouse
- ILS % (L 1210 leukemia [3]; 10^3 cells, 0.1 mg/mouse): 15.4%
- MTS (L 1210 leukemia [3]; 10^3 cells, 0.1 mg/mouse): 15
- Number of surviving mice (L 1210 leukemia [3]; 10^3 cells, 0.1 mg/mouse): 4
- ILS % (L 1210 leukemia [3]; 10^3 cells, 0.2 mg/mouse): 25.4%
- MTS (L 1210 leukemia [3]; 10^3 cells, 0.2 mg/mouse): 16.3
- Number of surviving mice (L 1210 leukemia [3]; 10^3 cells, 0.2 mg/mouse): 7
- ILS % (L 1210 leukemia [3]; 10^4 cells, 0.1 mg/mouse): 65.1%
- MTS (L 1210 leukemia [3]; 10^4 cells, 0.1 mg/mouse): 18
- Number of surviving mice (L 1210 leukemia [3]; 10^4 cells, 0.1 mg/mouse): 1
- ILS % (L 1210 leukemia [4]; [6]): 19.32%
- MTS (L 1210 leukemia [4]; [6]): 14.2
- Surviving mice (L 1210 leukemia [4]; [6]): 1
- ILS % (L 1210 leukemia [4]; [7]): 21%
- MTS (L 1210 leukemia [4]; [7]): 14.4
- Surviving mice (L 1210 leukemia [4]; [7]): 0
- ILS % (L 1210 leukemia [4]; [8]): 36.35%
- MTS (L 1210 leukemia [4]; [8]): 14.18
- ILS % (L 1210 leukemia [4]; [9]): 28.85%
- MTS (L 1210 leukemia [4]; [9]): 13.4
- antitumoral activity, single vs fractioned dose (L 1210 leukemia [4]; same dose single or on 4 occasions): a single dose has greater antitumoral activity than the same dose injected on 4 occasions
- activity against L1210 leukemia (in words) (L1210 leukemia [5]; Table XIII summary): the compound the most active on the mice
- ILS % (L1210 leukemia [5]; day +1): 69.2%
- Survivors up to 60 days (L1210 leukemia [5]; day +1): 1
- MST (L1210 leukemia [5]; day +1, control MST 8.8): 14.9
- Range of death (L1210 leukemia [5]; day +1, control MST 8.8): 12-18
- ILS % (L1210 leukemia [5]; day +4): 65.6%
- Survivors up to 60 days (L1210 leukemia [5]; day +4): 0
- MST (L1210 leukemia [5]; day +4, control MST 11.2): 18.5
- Range of death (L1210 leukemia [5]; day +4, control MST 11.2): 14-32
- time of deaths after drug administration (mice; IP): 4 to 8 days
- minimal quantity resulting in 100% deaths (mice; IP, mortality up to the 30th day): 50 mg/kg
- toxicity (toxic dose) (mice; Test 17 text): 50 mg/kg
- ILS % (leukemic cells; BCNU 2 mg/kg): 65.2%
- Range of death (leukemic cells; BCNU 2 mg/kg immediately after endoxan): 14-32
- MST (leukemic cells; BCNU 2 mg/kg, control 11.2): 18.5
